Data from the NIST ThermoML archive (doi:10.1021/je050366x).
Values joined by “and” are separate entries in the source; they are usually repeats but may differ in a detail not shown here. Equal values may be shown once.

Assay: xn = mol fraction of the nth substance listed
Settings: for mass density: 100 kPa, Liquid

O=C(O)CCC(=O)O [butanedioic acid] + O
Ring tensiometer
Settings	surface tension liquid-gas
279.9 K, x1 = 0.00716	70 mN/m
280.1 K, x1 = 0.00716	69.2 mN/m
280.2 K, x1 = 0.00716	70.3 mN/m
280.6 K, x1 = 0.00716	70 mN/m
284 K, x1 = 0.00716	69 mN/m
284.3 K, x1 = 0.00716	69.7 mN/m
284.7 K, x1 = 0.00716	69.3 mN/m
284.8 K, x1 = 0.00716	69.5 mN/m
285 K, x1 = 0.00716	69.6 mN/m
288.4 K, x1 = 0.00716	68.6 mN/m
288.9 K, x1 = 0.00716	69 mN/m and 68.8 mN/m and 68.7 mN/m
292.6 K, x1 = 0.00716	67.8 mN/m
293.1 K, x1 = 0.00716	68.5 mN/m
293.3 K, x1 = 0.00716	68.2 mN/m
293.4 K, x1 = 0.00716	68.2 mN/m
293.6 K, x1 = 0.00716	68.4 mN/m
296.8 K, x1 = 0.00716	67.2 mN/m
297.4 K, x1 = 0.00716	67.7 mN/m
297.6 K, x1 = 0.00716	68 mN/m
297.8 K, x1 = 0.00716	67.8 mN/m
297.9 K, x1 = 0.00716	67.8 mN/m
298 K, x1 = 0.0011	70.9 mN/m
298 K, x1 = 0.0022	70 mN/m
298 K, x1 = 0.0028	69.8 mN/m
298 K, x1 = 0.0033	69.4 mN/m
298 K, x1 = 0.0045	68.9 mN/m
298 K, x1 = 0.0056	68.5 mN/m
298 K, x1 = 0.0067	68.1 mN/m
298 K, x1 = 0.0071	67.7 mN/m
298 K, x1 = 0.0078	67.6 mN/m
298 K, x1 = 0.0089	67.3 mN/m
298 K, x1 = 0.01	66.6 mN/m
298 K, x1 = 0.0107	66.9 mN/m
298 K, x1 = 0.0111	66.4 mN/m
298 K, x1 = 0.0117	66.7 mN/m
301.7 K, x1 = 0.00716	67.5 mN/m
301.8 K, x1 = 0.00716	67.1 mN/m
302.3 K, x1 = 0.00716	67.3 mN/m
302.9 K, x1 = 0.00716	67.1 mN/m

298 K
Settings	mass density
x1 = 0.0011	991 kg/m3
x1 = 0.0012	997 kg/m3
x1 = 0.0022	993 kg/m3 and 1003 kg/m3
x1 = 0.0028	996 kg/m3
x1 = 0.0033	997 kg/m3
x1 = 0.0037	1001 kg/m3
x1 = 0.0045	998 kg/m3
x1 = 0.0047	1002 kg/m3
x1 = 0.0056	1001 kg/m3
x1 = 0.0067	1002 kg/m3
x1 = 0.0068	1008 kg/m3
x1 = 0.0078	1005 kg/m3
x1 = 0.0089	1007 kg/m3
x1 = 0.01	1009 kg/m3
x1 = 0.011	1010 kg/m3

O=C(O)/C=C\C(=O)O [cis-1,4-butenedioic acid] + O
Settings	mass density, Pycnometric method [kg/m3]	surface tension liquid-gas, Ring tensiometer
278.3 K, x1 = 0.012	–	69.9 mN/m
278.7 K, x1 = 0.06	–	64.3 mN/m
279.2 K, x1 = 0.012	–	69.8 mN/m
280.4 K, x1 = 0.06	–	64.4 mN/m
280.5 K, x1 = 0.06	–	64.4 mN/m
283.5 K, x1 = 0.012	–	69.2 mN/m
283.5 K, x1 = 0.06	–	63.7 mN/m
283.7 K, x1 = 0.012	–	69.4 mN/m
284.2 K, x1 = 0.06	–	64 mN/m
284.7 K, x1 = 0.06	–	63.9 mN/m
284.9 K, x1 = 0.06	–	63.5 mN/m
287.4 K, x1 = 0.012	–	68.7 mN/m
287.9 K, x1 = 0.012	–	68.6 mN/m
288.4 K, x1 = 0.06	–	63.4 mN/m
288.6 K, x1 = 0.06	–	63.6 mN/m
288.8 K, x1 = 0.06	–	63.1 mN/m
289.1 K, x1 = 0.06	–	63.2 mN/m
292.8 K, x1 = 0.012	–	68 mN/m and 68.2 mN/m
292.8 K, x1 = 0.06	–	62.8 mN/m
292.9 K, x1 = 0.06	–	62.6 mN/m
293.4 K, x1 = 0.06	–	62.9 mN/m
296.2 K, x1 = 0.06	–	62.1 mN/m
297 K, x1 = 0.012	–	67.5 mN/m
297.1 K, x1 = 0.06	–	62.4 mN/m
297.2 K, x1 = 0.012	–	67.7 mN/m
297.5 K, x1 = 0.012	–	67.6 mN/m
297.7 K, x1 = 0.06	–	62.3 mN/m
298 K, x1 = 0.008	1016	68 mN/m
298 K, x1 = 0.0116	–	67.6 mN/m
298 K, x1 = 0.017	1031	65.9 mN/m
298 K, x1 = 0.0267	–	64.1 mN/m
298 K, x1 = 0.027	1048	–
298 K, x1 = 0.037	1063	–
298 K, x1 = 0.0374	–	61.4 mN/m
298 K, x1 = 0.0376	–	61.4 mN/m
298 K, x1 = 0.0489	–	62.2 mN/m
298 K, x1 = 0.049	1084	–
298 K, x1 = 0.0579	–	61.2 mN/m
298 K, x1 = 0.06	–	62.3 mN/m
298 K, x1 = 0.062	1103	–
298 K, x1 = 0.0627	–	60.4 mN/m
298 K, x1 = 0.0764	–	58.8 mN/m
298 K, x1 = 0.077	1121	–
298 K, x1 = 0.085	–	60.3 mN/m
298 K, x1 = 0.0932	–	59.7 mN/m
298 K, x1 = 0.094	1135	–
298 K, x1 = 0.1083	–	59.5 mN/m
300.9 K, x1 = 0.06	–	61.4 mN/m
301.2 K, x1 = 0.06	–	61.5 mN/m
301.6 K, x1 = 0.06	–	61.8 mN/m
302 K, x1 = 0.06	–	61.8 mN/m
302.3 K, x1 = 0.012	–	66.9 mN/m
302.7 K, x1 = 0.012	–	66.8 mN/m

CC(=O)[C@H]1C[C@@H](CC(=O)O)C1(C)C [cis-pinonic acid] + O
Settings	mass density [kg/m3]	surface tension liquid-gas [mN/m]
280.7 K, Ring tensiometer, x1 = 0.00035	–	61.7
282.5 K, Ring tensiometer, x1 = 0.00035	–	61.6
283.6 K, Ring tensiometer, x1 = 0.00035	–	61.6
283.8 K, Ring tensiometer, x1 = 0.00035	–	61.4
284.4 K, Ring tensiometer, x1 = 0.00035	–	61.3
285.4 K, Ring tensiometer, x1 = 0.00035	–	61.5
287.5 K, Ring tensiometer, x1 = 0.00035	–	61.1
288 K, Ring tensiometer, x1 = 0.00035	–	60.8
288.8 K, Ring tensiometer, x1 = 0.00035	–	60.8
289.1 K, Ring tensiometer, x1 = 0.00035	–	60.9
291.9 K, Ring tensiometer, x1 = 0.00035	–	60.4
292.5 K, Ring tensiometer, x1 = 0.00035	–	60.7
292.9 K, Ring tensiometer, x1 = 0.00035	–	60.5
293.9 K, Ring tensiometer, x1 = 0.00035	–	60.2
296.8 K, Ring tensiometer, x1 = 0.00035	–	60.1
297.1 K, Ring tensiometer, x1 = 0.00035	–	60.2
298 K, Pycnometric method, x1 = 0.00018	995	–
298 K, Pycnometric method, x1 = 0.00025	993	–
298 K, Pycnometric method, x1 = 0.00033	995	–
298 K, Pycnometric method, x1 = 0.00041	997	–
298 K, Pycnometric method, x1 = 0.0005	996	–
298 K, Pycnometric method, x1 = 0.00058	994	–
298 K, Pycnometric method, x1 = 0.00066	994	–
298 K, Pycnometric method, x1 = 0.00083	997	–
298.1 K, Ring tensiometer, x1 = 0.00035	–	59.7
301.2 K, Ring tensiometer, x1 = 0.00035	–	59.4
301.7 K, Ring tensiometer, x1 = 0.00035	–	59.9
302.1 K, Ring tensiometer, x1 = 0.00035	–	59.1

298 K
Settings	surface tension liquid-gas [mN/m]
x1 = 2e-05	69.5
x1 = 4e-05	66.8
x1 = 0.00011	64.4
x1 = 0.00018	61.4
x1 = 0.00024	61.2
x1 = 0.00034	59
x1 = 0.00041	57.2
x1 = 0.0005	56.3
x1 = 0.00058	55.8
x1 = 0.00065	56.2
x1 = 0.00083	53.9
